The record followed here is patent publication US20250298000A1, “PREPARATION OF CULTURE MEDIUM AND USE THEREFOR IN WATER TOXICITY CO[…]” (CHANGCHUN INSTITUTE OF APPLIED CHEMISTRY, CHINESE ACADEMY …, priority 2022, published 2025).

For this assay, the system named is Bacillus subtilis. As to the kind of experiment: Colorimetric detection of water toxicity with Bacillus subtilis cultured in CM-Fe medium and potassium ferricyanide (Prussian blue, absorbance at 690 nm, 96-well plate). The assay is classed as cell-based. The conditions noted are these: bacterial suspension OD600=2, 8 mM potassium ferricyanide, 20 min reaction; for detection limit (toxicant concentration discerned with naked eyes by color difference): sample photographs. Here is the method:
The inhibition rate is specifically calculated as: Inhibition %=(1−Abstox/Abscon)×100(1); • wherein, Abstox represents the peak value of the ultraviolet absorption spectrum of the sample to be detected at 690 nm, and Abscon represents the peak value of the ultraviolet absorption spectrum of the standard sample at 690 nm; • the IC50 value is calculated by: taking a concentration of toxicant in the water to be detected as the abscissa and the inhibition rate as the ordinate, drawing a curve, and fitting to obtain the IC50 value.
20 g of glucose, 15 g of peptone, 5 g of NaCl, 0.5 g of yeast extract and 0.001-10 g of ferric citrate were weighed, mixed and ground into powder by a dry grinding method in a ball mill to obtain a new culture medium CM-Fe.
1-100 g of CM and 1-100 g of CM-Fe culture media were added into two 1 L beakers respectively, adjusted to a volume of 1 L by adding deionized water, stirred, ultrasonicated, dissolved, and aliquoted in six 500 mL triangular flasks (3 for each culture medium), which were sealed with a sterile filtration sealing film, sterilized with high-temperature and high-pressure at 121° C. (98 kPa) for 5-40 min, and cooled down for later use.
Bacillus subtilis was inoculated into sterilized CM and CM-Fe culture media respectively, and cultured in a constant temperature shaker at 50-300 rpm at 37° C. for 8-30 h. The cultured bacterial liquid was centrifuged at 3000-10000 rpm for 1-20 min, then centrifuged and washed twice with 0.1-30% NaCl solution to remove the culture medium. Finally, Bacillus subtilis was resuspended in 0.1-30% NaCl solution and placed at 0-30° C. for later use.
100 μL of two suspensions of bacteria with OD600=2, 50 μL of Cu^2+ at varying concentrations and 50 μL of 8 mM potassium ferricyanide were mixed in the wells of a 96-well plate and reacted for 20 min. […] At low Cu^2+, concentrations, the color of the toxic samples was similar to that of the non-toxic samples. […] The final concentrations of toxicants from top to bottom were 0 mg/L, 0.49 mg/L, 0.98 mg/L, 1.95 mg/L, 3.9 mg/L, 7.8 mg/L and 15.63 mg/L, respectively. […]

With `[Cu+2]` [Cu^2+], the “detection limit (toxicant concentration discerned with naked eyes by color difference)” value came out at 3.9 mg/L. In addition, where the note is “peak at 690 nm”, the “IC20 fitted from inhibition rate curve” value is 2.4 µg/mL.

For the compound `[Hg+2]` [Hg^2+], the “detection limit (toxicant concentration discerned with naked eyes by color difference)” value was found to be 0.49 mg/L.
